Source: patent US20200131129A1, “FARNESOID X RECEPTOR AGONISTS AND USES THEREOF” (Metacrine, Inc., priority 2017, published 2020)

molecular target: T1, hFXR (Homo sapiens, UniProt Q96RI1); test: In Vitro FXR Assay (TK): hFXR/hRXR TK-ECRE-luc reporter in transfected CV-1 cells; format: cell-based; conditions: CV-1 cells transfected with hFXR, hRXR, 18 hrs incubation, luminescence, maximum efficacy <25% of Fexarmine control also classified as ‘+’
T1 construct: expressed in transfected cells; host or cells: CV-1 cells
T1 sequence (Q96RI1 1-486): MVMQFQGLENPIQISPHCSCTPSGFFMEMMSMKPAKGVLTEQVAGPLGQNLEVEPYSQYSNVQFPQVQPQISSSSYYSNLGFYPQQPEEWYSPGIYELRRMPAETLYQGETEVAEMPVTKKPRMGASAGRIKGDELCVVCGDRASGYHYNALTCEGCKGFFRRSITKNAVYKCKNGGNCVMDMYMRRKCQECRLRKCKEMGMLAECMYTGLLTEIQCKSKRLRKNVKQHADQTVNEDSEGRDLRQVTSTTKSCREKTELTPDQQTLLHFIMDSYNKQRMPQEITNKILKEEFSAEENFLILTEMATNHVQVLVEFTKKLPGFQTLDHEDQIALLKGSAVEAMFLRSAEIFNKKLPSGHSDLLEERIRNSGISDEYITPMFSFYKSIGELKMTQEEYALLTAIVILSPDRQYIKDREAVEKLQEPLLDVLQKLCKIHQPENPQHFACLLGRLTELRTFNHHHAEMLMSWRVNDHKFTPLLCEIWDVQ
T1 sequence (P19793 1-462 partner): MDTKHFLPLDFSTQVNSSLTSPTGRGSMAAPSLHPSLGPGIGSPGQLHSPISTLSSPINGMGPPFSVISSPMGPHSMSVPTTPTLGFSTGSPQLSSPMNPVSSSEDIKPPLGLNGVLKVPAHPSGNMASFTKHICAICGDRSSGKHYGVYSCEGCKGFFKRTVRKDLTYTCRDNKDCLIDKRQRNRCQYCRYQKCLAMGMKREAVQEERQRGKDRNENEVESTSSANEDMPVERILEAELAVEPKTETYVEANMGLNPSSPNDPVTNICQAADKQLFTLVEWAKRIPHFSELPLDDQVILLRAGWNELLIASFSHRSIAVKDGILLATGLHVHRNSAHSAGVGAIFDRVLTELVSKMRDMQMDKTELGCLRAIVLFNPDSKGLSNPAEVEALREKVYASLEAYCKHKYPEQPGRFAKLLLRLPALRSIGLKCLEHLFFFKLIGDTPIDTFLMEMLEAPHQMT
In short: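 CV-1 cells in charcoal-stripped serum were transiently transfected with hFXR, hRXR, TK-ECRE-luc reporter and pCMX-YFP plasmids for 18 h at 37 °C. Serially diluted compounds were added for 18 h, then cells were lysed and luciferase luminescence read.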

EC50	Structure (SMILES)
≤ 500 nM	COc1ccc([C@H]2CC[C@H](CN(c3cccc(C#Cc4ncco4)c3)C(=O)[C@H]3CC[C@H](O)CC3)CC2)cc1C [Compound 11.01, trans-4-Hydroxy-N-((trans-4-(4-methoxy-3-methylphenyl)cyclohexyl)methyl)-N-(3-(oxazol-2-ylethynyl)phenyl)cyclohexanecarboxamide]
≤ 500 nM	COc1ccc([C@H]2CC[C@H](CN(c3cccc(C#Cc4nncs4)c3)C(=O)[C@H]3CC[C@H](O)CC3)CC2)cc1C [Compound 11.02, trans-N-(3-((1,3,4-Thiadiazol-2-yl)ethynyl)phenyl)-4-hydroxy-N-((trans-4-(4-methoxy-3-methylphenyl)cyclohexyl)methyl) cyclohexanecarboxamide]
≤ 500 nM	COc1ccc([C@H]2CC[C@H](CN(c3cccc(C#Cc4nnn(C)n4)c3)C(=O)[C@H]3CC[C@H](O)CC3)CC2)cc1C [Compound 11.03, trans-4-Hydroxy-N-((trans-4-(4-methoxy-3-methylphenyl)cyclohexyl)methyl)-N-(3-((2-methyl-2H-tetrazol-5-yl)ethynyl)phenyl) cyclohexanecarboxamide]
≤ 500 nM	COc1ccc([C@H]2CC[C@H](CN(c3cccc(C#Cc4ccccn4)c3)C(=O)[C@H]3CC[C@H](O)CC3)CC2)cc1C [Compound 11.04, trans-4-Hydroxy-N-((trans-4-(4-methoxy-3-methylphenyl)cyclohexyl)methyl)-N-(3-(pyridine-2-ylethynyl)phenyl)cyclohexanecarboxamide]
≤ 500 nM	COc1ccc([C@H]2CC[C@H](CN(c3cccc(C#Cc4cnn(C)n4)c3)C(=O)[C@H]3CC[C@H](O)CC3)CC2)cc1C [Compound 12.01, trans-4-Hydroxy-N-((trans-4-(4-methoxy-3-methylphenyl)cyclohexyl)methyl)-N-(3-((2-methyl-2H-1,2,3-triazol-4-yl)ethynyl)phenyl)cyclohexanecarboxamide]
≤ 500 nM	COc1ccc([C@H]2CC[C@H](CN(c3cccc(C#Cc4cn(C)nn4)c3)C(=O)[C@H]3CC[C@H](O)CC3)CC2)cc1C [Compound 12.02, trans-4-Hydroxy-N-((trans-4-(4-methoxy-3-methylphenyl)cyclohexyl)methyl)-N-(3-((1-methyl-1H-1,2,3-triazol-4-yl)ethynyl)phenyl)cyclohexanecarboxamide]
≤ 500 nM	COc1ccc([C@H]2CC[C@H](CN(c3cccc(C#Cc4cn[nH]n4)c3)C(=O)[C@H]3CC[C@H](O)CC3)CC2)cc1C [Compound 14.01, trans-N-(3-((2H-1,2,3-Triazol-4-yl)ethynyl)phenyl)-4-hydroxy-N-((trans-4-(4-methoxy-3-methylphenyl)cyclohexyl)methyl) cyclohexanecarboxamide]

The remaining lines, values behind:

Structure (SMILES)	EC50
COc1ccc([C@H]2CC[C@H](CN(c3cccc(-c4coc(C5CC5)n4)c3)C(=O)[C@H]3CC[C@H](O)CC3)CC2)nc1C#N [Compound 10.14, trans-N-((trans-4-(6-Cyano-5-methoxypyridin-2-yl)cyclohexyl)methyl)-N-(3-(2-cyclopropyloxazol-4-yl)phenyl)-4-hydroxycyclohexanecarboxamide]	≤ 500 nM
COc1ccc([C@H]2CC[C@H](CN(c3cccc(-c4ccc(N(C)C)nc4)c3)C(=O)[C@H]3CC[C@H](O)CC3)CC2)nc1C [Compound 10.15, trans-N-(3-(6-(Dimethylamino)pyridine-3-yl)phenyl)-4-hydroxy-N-((trans-4-(5-methoxy-6-methylpyridin-2-yl)cyclohexyl)methyl) cyclohexanecarboxamide]	≤ 500 nM
COc1cnc([C@H]2CC[C@H](CN(c3cccc(-c4coc(C5CC5)n4)c3)C(=O)[C@H]3CC[C@H](O)CC3)CC2)cc1C [Compound 10.16, trans-N-(3-(2-Cyclopropyloxazol-4-yl)phenyl)-4-hydroxy-N-((trans-4-(5-methoxy-4-methylpyridin-2-yl)cyclohexyl)methyl) cyclohexanecarboxamide]	500 to 1000 nM
COc1ccc([C@H]2CC[C@H](CN(c3cc(-c4coc(C(C)C)n4)ccn3)C(=O)[C@H]3CC[C@H](O)CC3)CC2)nc1C [Compound 10.17, trans-4-Hydroxy-N-(4-(2-isopropyloxazol-4-yl)pyridine-2-yl)-N-((trans-4-(5-methoxy-6-methylpyridin-2-yl)cyclohexyl)methyl) cyclohexanecarboxamide]	≤ 500 nM
COc1ccc([C@H]2CC[C@H](CN(c3cc(-c4coc(C5CC5)n4)ccn3)C(=O)[C@H]3CC[C@H](O)CC3)CC2)nc1C#N [Compound 10.19, trans-N-((trans-4-(6-Cyano-5-methoxypyridin-2-yl)cyclohexyl)methyl)-N-(4-(2-cyclopropyloxazol-4-yl)pyridine-2-yl)-4-hydroxycyclohexanecarboxamide]	≤ 500 nM
COc1ccc([C@H]2CC[C@H](CN(c3cccc(-c4coc(C(C)C)n4)c3)C(=O)[C@H]3CC[C@H](O)CC3)CC2)nc1C#N [Compound 10.20, trans-N-((trans-4-(6-Cyano-5-methoxypyridin-2-yl)cyclohexyl)methyl)-4-hydroxy-N-(3-(2-isopropyloxazol-4-yl)phenyl)cyclohexanecarboxamide]	≤ 500 nM
Cn1ccc2cc([C@H]3CC[C@H](CN(c4cccc(-c5coc(C6CC6)n5)c4)C(=O)[C@H]4CC[C@H](O)CC4)CC3)ncc21 [Compound 10.21]	500 to 1000 nM
CCc1nc(-c2ccnc(N(C[C@H]3CC[C@H](c4ccc(OC)c(C)n4)CC3)C(=O)[C@H]3CC[C@H](O)CC3)c2)co1 [Compound 10.22, trans-N-(4-(2-Ethyloxazol-4-yl)pyridin-2-yl)-4-hydroxy-N-((trans-4-(5-methoxy-6-methylpyridin-2-yl)cyclohexyl)methyl) cyclohexanecarboxamide]	≤ 500 nM
COc1ncc([C@H]2CC[C@H](CN(c3cc(-c4coc(C5CC5)n4)ccn3)C(=O)[C@H]3CC[C@H](O)CC3)CC2)cc1C [Compound 10.23, trans-N-(4-(2-Cyclopropyloxazol-4-yl)pyridin-2-yl)-4-hydroxy-N-((trans-4-(6-methoxy-5-methylpyridin-3-yl)cyclohexyl)methyl) cyclohexanecarboxamide]	≤ 500 nM
COc1ncc([C@H]2CC[C@H](CN(c3cc(-c4coc(C5CC5)n4)ccn3)C(=O)[C@H]3CC[C@H](O)CC3)CC2)cc1Cl [Compound 10.24, trans-N-((trans-4-(5-Chloro-6-methoxypyridin-3-yl)cyclohexyl)methyl)-N-(4-(2-cyclopropyloxazol-4-yl)pyridin-2-yl)-4-hydroxycyclohexanecarboxamide]	≤ 500 nM
COc1ccc(C23CCC(CN(c4cccc(-c5coc(C6CC6)n5)c4)C(=O)[C@H]4CC[C@H](O)CC4)(CC2)CC3)cc1C [Compound 10]	≤ 500 nM
COc1ccc([C@H]2CC[C@H](CN(c3cccc(C#Cc4ncns4)c3)C(=O)[C@H]3CC[C@H](O)CC3)CC2)cc1C [Compound 11, trans-N-(3-((1,2,4-Thiadiazol-5-yl)ethynyl)phenyl)-4-hydroxy-N-((trans-4-(4-methoxy-3-methylphenyl)cyclohexyl)methyl)cyclohexanecarboxamide]	≤ 500 nM
COc1ccc([C@H]2CC[C@H](CN(c3cccc(C#Cc4ncn(C)n4)c3)C(=O)[C@H]3CC[C@H](O)CC3)CC2)cc1C [Compound 12, trans-4-Hydroxy-N-((trans-4-(4-methoxy-3-methylphenyl)cyclohexyl)methyl)-N-(3-((1-methyl-1H-1,2,4-triazol-3-yl)ethynyl)phenyl)cyclohexanecarboxamide]	≤ 500 nM
COc1ccc([C@H]2CC[C@H](CN(c3cccc(C#Cc4nnc[nH]4)c3)C(=O)[C@H]3CC[C@H](O)CC3)CC2)cc1C [Compound 14, trans-N-(3-((1H-1,2,4-Triazol-3-yl)ethynyl)phenyl)-4-hydroxy-N-((trans-4-(4-methoxy-3-methylphenyl)cyclohexyl)methyl)cyclohexanecarboxamide]	≤ 500 nM
